Literature values in patent US20230131859A1, “BIOCONVERSION OF OLEUROPEIN” (SOCIETE DES PROUITS NESTLES S.A., priority 2017, published 2023).

How the values were obtained:
[1] = compared with hydroxytyrosol
[2] = in vivo

Compound: hydroxytyrosol acetate
- solubility in the lipophilic phases [1]: more soluble in the lipophilic phases than hydroxytyrosol

Compound: CC=C1C(O)OC=C(C(=O)OC)C1CC(=O)OCCc1ccc(O)c(O)c1 (centres unmarked) [oleuropein aglycone, 3,4-dihydroxyphenylethanol-elenolic acid]
- clearance from the plasma [2]: slower clearance from the plasma compared with hydroxytyrosol and oleuropein
